The values below come from patent publication US8383629B2, “Inhibitors of 11β-hydroxysteroid dehydrogenase type 1” (Vitae Pharmaceuticals, Inc., priority 2008, dated 2013).

The target of this assay is T1, human 11β-HSD1 (Homo sapiens, UniProt P28845).
T1 construct: expressed in transfected cells; host or cells: CHO cells (microsomes)
Kind of assay: Inhibition of microsomal preparation of 11β-HSD1 (SPA, Biological Test Example 1). It is filed as biochemical. As to conditions: for inhibition at 0.1 µM: 100 nM; for IC50: microsomes from CHO cells overexpressing human 11β-HSD1, read-out: IC50 Range. Here is the method:
The inhibition of microsomal preparation of 11β-HSD1 by compounds of the invention was measured essentially as previously described (K. Solly, S. S. Mundt, H. J. Zokian, G. J. Ding, A. Hermanowski-Vosatka, B. Strulovici, and W. Zheng, High-Throughput Screening of 11-Beta-Hydroxysteroid Dehydrogenase Type 1 in Scintillation Proximity Assay Format. Assay Drug Dev Technol 3 (2005) 377-384). All reactions were carried out at rt in 96 well clear flexible PET Microbeta plates (PerkinElmer). The assay begins by dispensing 49 μl of substrate solution (50 mM HEPES, pH 7.4, 100 mM KCl, 5 mM NaCl, 2 mM MgCl2, 2 mM NADPH and 160 nM [^3H]cortisone (1 Ci/mmol)) and mixing in 1 μL of the test compounds in DMSO previously diluted in half-log increments (8 points) starting at 0.1 mM. After a 10 minute pre-incubation, 50 μL of enzyme solution containing microsomes isolated from CHO cells overexpressing human 11β-HSD1 (10-20 μg/ml of total protein) was added, and the plates were incubated for 90 minutes at rt. The reaction was stopped by adding 50 μl of the SPA beads suspension containing 10 μM 18β-glycyrrhetinic acid, 5 mg/ml protein A coated YSi SPA beads (GE Healthcare) and 3.3 μg/ml of anti-cortisol antibody (East Coast Biologics) in Superblock buffer (Bio-Rad). The plates were shaken for 120 minutes at rt, and the SPA signal corresponding to [^3H]cortisol was measured on a Microbeta plate reader.

T1 sequence (P28845 whole entry): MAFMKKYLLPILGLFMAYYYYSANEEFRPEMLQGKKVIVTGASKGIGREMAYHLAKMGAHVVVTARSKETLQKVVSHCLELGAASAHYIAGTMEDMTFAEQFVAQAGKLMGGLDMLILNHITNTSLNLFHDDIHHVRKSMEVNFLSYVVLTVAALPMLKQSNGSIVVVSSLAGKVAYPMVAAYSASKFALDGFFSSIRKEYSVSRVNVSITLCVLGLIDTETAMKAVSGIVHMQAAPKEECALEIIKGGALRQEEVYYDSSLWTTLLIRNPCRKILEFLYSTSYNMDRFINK

Consider `O=C(/C=C/c1ccccc1C(F)(F)F)N1CCC2(CC1)CC(O)c1cccc(Br)c12` (racemic) [EXAMPLE 16, (±)-(E)-1-(7-bromo-3-hydroxy-2,3-dihydrospiro[indene-1,4′-piperidine]-1′-yl)-3-(2-(trifluoromethyl)phenyl)prop-2-en-1-one], for which the inhibition – broadly, the relative decrease from the control value, in per cent – at 0.1 µM is 95.3% and the IC50 (usually the concentration at which inhibition is half-maximal) is under 100 nM. In addition, where the note is “111 nM”, at 0.111 µM the inhibition was 98.6%.

With `CC1(C)NC(=O)C2(CCN(C(=O)/C=C/c3ccccc3C(F)(F)F)CC2)c2ccccc21` [EXAMPLE 43, (E)-1,1-dimethyl-1′-(3-(2-(trifluoromethyl)phenyl)acryloyl)-1H-spiro[isoquinoline-4,4′-piperidin]-3(2H)-one], the inhibition at 0.1 µM was determined as 90.6% and the IC50 was under 100 nM.

For `NC(=O)CC1CC2(CCN(C(=O)/C=C/c3ccccc3C(F)(F)F)CC2)c2cc(F)ccc21` (racemic) [EXAMPLE 14, (±)-(E)-2-(6-fluoro-1′-(3-(2-(trifluoromethyl)phenyl)acryloyl)-2,3-dihydrospiro[indene-1,4′-piperidine]-3-yl)acetamide], 0.1 µM produced 85.6% inhibition and the IC50 is under 100 nM. The molecule also displayed an inhibition at 0.111 µM (111 nM) of 90.9%.

`CS(=O)(=O)N1Cc2ccccc2C2(CCN(C(=O)CCc3ccccc3C(F)(F)F)CC2)C1` [EXAMPLE 60, 1-(2-(methylsulfonyl)-2,3-dihydro-1H-spiro[isoquinoline-4,4′-piperidine]-1′-yl)-3-(2-(trifluoromethyl)phenyl)propan-1-one]: the 50% inhibitory concentration (IC50) was under 100 nM. Besides, at 0.111 µM the inhibition (111 nM) was 92.6%.

For `O=C(O)CC1CC2(CCN(C(=O)NCc3cc(F)c(F)cc3F)CC2)c2c(Br)cccc21` (stereo not drawn) [EXAMPLE 83, 2-(7-bromo-1′-(2,4,5-trifluorobenzylcarbamoyl)-2,3-dihydrospiro[indene-1,4′-piperidine]-3-yl)acetic acid], the IC50 was in the range of 100 to 1000 nM. Under “111 nM”, this molecule registered an inhibition at 0.111 µM of 10.9%.

Take `CNC(=O)NC1CC2(CCN(C(=O)/C=C/c3ccccc3C(F)(F)F)CC2)c2c(Br)cccc21` (racemic) [EXAMPLE 19, (±)-(E)-1-(7-bromo-1′-(3-(2-(trifluoromethyl)phenyl)acryloyl)-2,3-dihydrospiro[indene-1,4′-piperidine]-3-yl)-3-methylurea]: the inhibition at 0.1 µM is 98.1% and the IC50 was under 100 nM.

`O=C(O)CC1CC2(CCN(C(=O)NCc3ccccc3N3CCCC3)CC2)c2c(Br)cccc21` (stereo not drawn) [EXAMPLE 96, 2-(7-bromo-1′-(2-(pyrrolidin-1-yl)benzylcarbamoyl)-2,3-dihydrospiro[indene-1,4′-piperidine]-3-yl)acetic acid]: the IC50 lay within 100 to 1000 nM. In addition, under “111 nM”, testing at 0.111 µM gave an inhibition of 48.9%.

Consider `CNC(=O)N1Cc2ccccc2C2(CCN(C(=O)CCc3ccccc3C(F)(F)F)CC2)C1` [EXAMPLE 68, N-methyl-1′-(3-(2-(trifluoromethyl)phenyl)propanoyl)-1H-spiro[isoquinoline-4,4′-piperidine]-2(3H)-carboxamide], for which the IC50 was under 100 nM. The inhibition at 0.111 µM (111 nM) is 81.5%.

Take `CN1C(=O)C2(CCN(C(=O)/C=C/c3ccccc3C(F)(F)F)CC2)c2ccccc21` [EXAMPLE 31, (E)-1-methyl-1′-(3-(2-(trifluoromethyl)phenyl)acryloyl)spiro[indoline-3,4′-piperidin]-2-one]: testing at 0.1 µM gave an inhibition of 99.9% and the IC50 was under 100 nM.

For `O=C1NC2(CCN(C(=O)CCc3ccccc3C(F)(F)F)CC2)c2c(Cl)cccc21` [EXAMPLE 65, 7-chloro-1′-(3-(2-(trifluoromethyl)phenyl)propanoyl)spiro[isoindoline-1,4′-piperidin]-3-one], the IC50 is under 100 nM. In addition, the inhibition at 0.111 µM (111 nM) came out at 87.7%.

`CCN1C(=O)C2(CCN(C(=O)/C=C/c3ccccc3C(F)(F)F)CC2)c2cc(C(=O)OC)ccc21` [EXAMPLE 40, (E)-methyl 1-ethyl-2-oxo-1′-(3-(2-(trifluoromethyl)phenyl)acryloyl)spiro[indoline-3,4′-piperidine]-5-carboxylate]: the IC50 was under 100 nM. The inhibition at 0.111 µM (111 nM) was found to be 71.2%.

As for `O=C1NC2(CCN(C(=O)/C=C/c3ccccc3C(F)(F)F)CC2)c2c(Cl)cccc21` [EXAMPLE 27, (E)-7-chloro-1′-(3-(2-(trifluoromethyl)phenyl)acryloyl)spiro[isoindoline-1,4′-piperidin]-3-one], the IC50 is under 100 nM. The same molecule gave an inhibition at 0.111 µM (111 nM) of 89.8%.

Turning to `CN1C(=O)c2cccc(Cl)c2C12CCN(C(=O)CCc1ccccc1C(F)(F)F)CC2` [EXAMPLE 61, 7-chloro-2-methyl-1′-(3-(2-(trifluoromethyl)phenyl)propanoyl)spiro[isoindoline-1,4′-piperidin]-3-one], 0.1 µM produced 93.3% inhibition and the IC50 is under 100 nM. Moreover, for the setting “111 nM”, the inhibition at 0.111 µM was found to be 96.7%.

As to `CN1C(=O)C2(CCN(C(=O)/C=C/c3ccccc3C(F)(F)F)CC2)c2cc(C(N)=O)ccc21` [EXAMPLE 35, (E)-1-methyl-2-oxo-1′-(3-(2-(trifluoromethyl)phenyl)acryloyl)spiro[indoline-3,4′-piperidine]-5-carboxamide], the IC50 is 100 to 1000 nM. Further, 0.111 µM produced 41.4% inhibition (111 nM).

For the molecule `O=C(CCc1ccccc1C(F)(F)F)N1CCC2(CC1)CC(O)c1cccc(Br)c12` (stereo not drawn) [EXAMPLE 64, 1-(7-bromo-3-hydroxy-2,3-dihydrospiro[indene-1,4′-piperidine]-1′-yl)-3-(2-(trifluoromethyl)phenyl)propan-1-one], the IC50 was under 100 nM. Further, at 0.111 µM the inhibition (111 nM) was 100%.

Regarding `CN1C(=O)c2cccc(Cl)c2C12CCN(C(=O)/C=C/c1ccccc1C(F)(F)F)CC2` [EXAMPLE 25, (E)-7-chloro-2-methyl-1′-(3-(2-(trifluoromethyl)phenyl)acryloyl)spiro[isoindoline-1,4′-piperidin]-3-one], at 0.1 µM the inhibition was 95.5% and the IC50 is under 100 nM. The molecule also returned an inhibition at 0.111 µM (111 nM) of 95.3%.

For `O=C(O)CC1CC2(CCN(C(=O)Cc3ccc(F)cc3C(F)(F)F)CC2)c2c(Cl)cccc21` (stereo not drawn) [EXAMPLE 53, 2-(7-chloro-1′(2-(4-fluoro-2-(trifluoromethyl)phenyl)acetyl)-2,3-dihydrospiro[indene-1,4′-piperidine]-3-yl)acetic acid], the inhibition at 0.1 µM was determined as 67.2% and the IC50 is under 100 nM.

Take `O=C1NC2(CCN(C(=O)Cc3ccccc3C(F)(F)F)CC2)c2c(Br)cccc21` [EXAMPLE 49, 7-bromo-1′-(2-(2-(trifluoromethyl)phenyl)acetyl)spiro[isoindoline-1,4′-piperidin]-3-one]: the half-maximal inhibitory concentration (IC50) was in the range of 100 to 1000 nM. Also, the inhibition at 0.111 µM (111 nM) amounted to 49.2%.

For the molecule `NC(=O)CC1CC2(CCN(C(=O)/C=C/c3ccccc3C(F)(F)F)CC2)c2c(Br)cccc21` (racemic) [EXAMPLE 13, (±)-(E)-2-(7-bromo-1′-(3-(2-(trifluoromethyl)phenyl)acryloyl)-2,3-dihydrospiro[indene-1,4′-piperidine]-3-yl)acetamide], at 0.1 µM the inhibition was 94.6% and the IC50 was under 100 nM. The molecule further yielded an inhibition at 0.111 µM (111 nM) of 94.8%.

For the molecule `CCOC(=O)CC1CC2(CCN(C(=O)N(CC)Cc3c(F)cccc3Cl)CC2)c2c(Br)cccc21` (stereo not drawn) [EXAMPLE 81], the IC50 was under 100 nM. This molecule gave an inhibition at 0.111 µM (111 nM) of 59.2%.

With `NC1CC2(CCN(C(=O)/C=C/c3ccccc3C(F)(F)F)CC2)c2c(Br)cccc21` (racemic) [EXAMPLE 18, (±)-(E)-1-(3-amino-7-bromo-2,3-dihydrospiro[indene-1,4′-piperidine]-1′-yl)-3-(2-(trifluoromethyl)phenyl)prop-2-en-1-one], the IC50 is under 100 nM. The inhibition at 0.111 µM (111 nM) is 93.3%.

`O=C(O)CC1CC2(CCN(C(=O)CCc3ccccc3C(F)(F)F)CC2)c2c(Br)cccc21` (single isomer, unassigned) [EXAMPLE 70.2]: the inhibition at 0.1 µM amounted to 95.7% and the IC50 was under 100 nM. The “Average % inhibition at 111 nM” value (111 nM, 0.111 µM) came out at 99.2%.

For `CN1C(=O)C2(CCN(C(=O)/C=C/c3ccccc3C(F)(F)F)CC2)c2cc(C(=O)NCCO)ccc21` [EXAMPLE 36, (E)-N-(2-hydroxyethyl)-1-methyl-2-oxo-1′-(3-(2-(trifluoromethyl)phenyl)acryloyl)spiro[indoline-3,4′-piperidine]-5-carboxamide], the IC50 was 100 to 1000 nM. Also, 0.111 µM produced 0.6% inhibition (111 nM).

In the case of `O=C(O)CC1CC2(CCN(C(=O)/C=C/c3ccc(F)cc3C(F)(F)F)CC2)c2c(Cl)cccc21` (racemic) [EXAMPLE 4, (±)-(E)-2-(7-chloro-1′-(3-(4-fluoro-2-(trifluoromethyl)phenyl)acryloyl)-2,3-dihydrospiro[indene-1,4′-piperidine]-3-yl)acetic acid], the 50% inhibitory concentration (IC50) is under 100 nM. Besides, the inhibition at 0.111 µM (111 nM) turned out to be 94.2%.

For the molecule `CN1C(=O)C2(CCN(C(=O)Cc3ccccc3C(F)(F)F)CC2)c2ccccc21` [EXAMPLE 48, 1-methyl-1′-(2-(2-(trifluoromethyl)phenyl)acetyl)spiro[indoline-3,4′-piperidin]-2-one], 0.1 µM produced 80.6% inhibition and the IC50 was under 100 nM. Under “111 nM”, this molecule came in with an inhibition at 0.111 µM of 86.3%.
